Here are results for one molecule from patent US20170265465A1, “BIORATIONAL TREATMENT PRODUCTS AND METHODS OF USING SAME” (Board of Trustees of Michigan State University, priority 2014, published 2017).

Common to all, as to assay type: in vivo
The test system of assay [1] is creeping bentgrass (Agrostis palustris) putting green. In words: Example 11: dried clippings weights. The settings on record: urea only 0.2 lb. N/1000 ft^2, no bio-adjuvant. As for the experimental part: Some biomass ratings were subjective visual estimations based on appearance of a combination of increased biomass and increased density on a 1 (least increase) to 9 (most increase) scale. Objective biomass ratings were also performed based on an increase in dried weight of clippings. Clippings were collected over pre-measured plot areas in each treatment replicate using a Toro® brand walk-behind greens mower Model Greensmaster 8000 at the height described in this Example and dried in a drying oven (60° C.) for approximately 48 hours before being weighed.
(§1) Treatments were applied in the same manner and using the same equipment as previously described in Example 1. Turfgrass quality ratings and biomass ratings were performed as described in Example 1. Clippings were also collected as described in Example 1.
(§2) Treatments were applied once only to 2 ft ([…])×10.5 ft (3.2 m) plots of turfgrass on Apr. 1, 2015, while the turfgrass was still in winter dormancy (desiccated, brown, and thin). No additional applications were made to the study area. The study was rated visually for turfgrass biomass increase on Apr. 3, 2015 (2 days after treatment), on Apr. 11, 2015, and on Apr. 17, 2015. Turfgrass quality ratings were taken on Apr. 11, 2015 and Apr. 17, 2015. Turfgrass clippings were collected, dried, and weighed on Apr. 19, 2015 and May 2, 2015.

Assay [2] has the same test system. As to the kind of experiment: Example 11, 2015 spring green-up (dormancy break) study: visual turfgrass biomass rating. The settings on record: urea only 0.2 lb. N/1000 ft^2, no bio-adjuvant; scale 1-5. As for the experimental part:
[…] Objective biomass ratings were also performed based on an increase in dried weight of clippings. Clippings were collected over pre-measured plot areas in each treatment replicate using a Toro® brand walk-behind greens mower Model Greensmaster 8000 at the height described in this Example and dried in a drying oven (60° C.) for approximately 48 hours before being weighed.
as §1, §2

Assay [3] shares this test system. In words: Example 11: turfgrass quality rating. The settings on record: scale 1-9, urea 0.2 lb. N/1000 ft^2. Here is the method:
as §1, §2

For the molecule `NC(N)=O` [Urea only], in assay [1], the “Clippings (Biomass) Dry wt (g) Apr. 19, 2015 Mean” value is recorded as 4.623 g and the “Clippings (Biomass) Dry wt (g) May 2, 2015 Mean” value came to 6.175 g. In addition, in assay [2], the “Appearance (Biomass Increase) Apr. 3, 2015 Mean” value was determined as 1.5; the “Appearance (Biomass Increase) Apr. 11, 2015 Mean” value was found to be 2.5; the “Appearance (Biomass Increase) Apr. 17, 2015 Mean” value stood at 3; the “Appearance (Biomass Increase) Apr. 25, 2015 Mean” value was 2.25. Moreover, the “Turfgrass Quality” value in assay [3] (Apr. 11, 2015) is given as 5.5. The “Turfgrass Quality” value in assay [3] (Apr. 17, 2015) is reported as 5.5. Also, the “Turfgrass Quality” value in assay [3] (Apr. 25, 2015) was 5.75.
